pIC50: −log10 of the molar value. Where a name gives a salt, the structure may show the parent alone.

Data set [1] concerns the target T1, recombinant human MNL phosphodiesterase type IV B (Homo sapiens, UniProt Q07343).
T1 construct: made in house; host or cells: insect cells infected with recombinant baculovirus
In words: Inhibition of recombinant human mononuclear lymphocyte (MNL) phosphodiesterase type IV B produced in insect cells with a baculovirus vector. In kind it is biochemical. As to conditions: recombinant human MNL PDE IV B; 0.8 μM 3H-cAMP, pH 8, 37° C.; calculated graphically. How it is done:
Inhibition of recombinant human mononuclear lymphoctye (MNL) phosphodiesterase type IV B produced in insect cells with a baculovirus vector
The alleviating and/or curing effect of the instant compounds on allergic and atopic diseases was assessed by an in vitro assay system to detect an inhibiting effect on the recombinant human MNL phosphodiesterase type IV B.
Seventy-two hours after infection with recombinant baculovirus, the insect cells were harvested and pelleted at 500 g for 5 minutes. The cells were lysed in 10 ml lysis-buffer consisting of 20 mM Tris, 10 mM EGTA, 2 mM Na2EDTA, 1% Triton-X-100, 1 mM Na3VO4, 10 mM NaF, 2 μg/ml of leupeptine, pepstatine and aprotinine, 0.3 μg/ml benzamidine and 100 μg/ml TPCK pH 7.5. After 5 minutes on ice, solubilized cells were centrifuged at 4000 rpm for 15 minutes at 4° C. The resulting supernatant was filtered through a 0.45 μm filter (Millipore) and brought to TBS buffer (50 mM Tris, 150 mM NaCl pH 7.4).
After washing the column with equilibration buffer, PDE IV was eluted in 1.5 ml fractions containing 37.5 μl 1M Tris pH 8. The fractions were dialyzed overnight against 20 mM Tris, 2 mM Na2EDTA and 400 mM NaCl pH 7.5 and tested for PDE IV activity. Identification was done on SDS PAGE and Western Blot (anti-FLAG-M2). Active fractions were pooled, brought to 10% glycerol and stored at −70° C.
The incubation mixture (pH 8) (200 μl) contained 20 mM Tris, 10 mM magnesium sulphate, 0.8 μM ^3H-cAMP (310 mCi/mmole) and the phosphodiesterase type IV, the amount depending on the enzymatic activity.
When the effect of different compounds on phosphodiesterase activity was tested, the medium without cAMP was incubated with the compound(s) or its carrier (DMSO-1% final concentration) for 5 min. The enzymatic reaction was started by addition of ^3H-cAMP and stopped 10 min later after transferring the microtiter-plate in a waterbath at 100° C. for 5 min. After cooling to room temperature, alkaline phosphatase (0.25 μg/ml) was added and the mixture was incubated at 37° C. for 20 min. 100 μl of the mixture was subsequently applied to a GF-B filter-microtiter-plate (Millipore) filled with 300 μl DEAE-Sephadex-A25 suspension. The plate was washed 3 times with 75 μl 20 mM Tris pH 7.5 and the filtrates were collected for counting in the Packard Top Count scintillation counter.
The inhibiting effect of the present compounds on recombinant human MNL phosphodiesterase PDE IV B was measured at different concentrations of the instant compounds. The IC50 values (expressed in M) were calculated graphically from the thus obtained inhibition values.

Data set [2] concerns dextran-induced oedema formation in mouse ear. Briefly: Dextran-induced oedema formation in mouse ear. The class given is in vivo, Male Swiss mice. To be noted: Mus musculus, 1 h; oral dose of 5 mg/kg in PEG-200, one hour before i.v. dextran T500/pontamine sky-blue; vs background blueing value; read-out: % inhibition of the extravasation of the dye. How it is done:
Dextran-induced oedema formation in mouse ear Systemic injection of dextran T500 in normal, non-sensitized mice elicits increased vascular permeability, leading to extravasation and oedema of the extremities. When dextran is injected together with a blue dye, blueing of the ears is the most prominent feature of oedematous response. Male Swiss mice weighting 24-26 g were orally pretreated with the test compound dissolved in PEG-200 at different concentrations or solvent. One hour later, the mice were given an intravenous injection with an isotonic saline solution containing 12 mg/ml dextran T500 and 2.6 mg/ml pontamine sky-blue dye, in a volume of 0.1 ml per 10 g body weight. One hour and forty-five minutes later, the animals are sacrificed by ether and their ears removed. Extraction and quantification of the extravasated dye is done as described by Van Wauwe and Goossens (Drug Dev. Res. 1986, 8, 213-218). The extravasation of the dye is characterized by the blueing value which is defined as the concentration of the extracted dye in both ears. The background blueing value was determined once as the mean blueing value obtained by injecting a group of mice with a saline solution containing only dextran T500 and the blue dye. Table 6 lists the percentage inhibition of the extravasation of the dye when compared with the background extravasation of the dye when the test compound was administered at a dose of 5 mg/kg. The test compounds indicated by an asterisk (*) were tested at a dose of 2.5 mg/kg

T1 sequence (Q07343 whole entry): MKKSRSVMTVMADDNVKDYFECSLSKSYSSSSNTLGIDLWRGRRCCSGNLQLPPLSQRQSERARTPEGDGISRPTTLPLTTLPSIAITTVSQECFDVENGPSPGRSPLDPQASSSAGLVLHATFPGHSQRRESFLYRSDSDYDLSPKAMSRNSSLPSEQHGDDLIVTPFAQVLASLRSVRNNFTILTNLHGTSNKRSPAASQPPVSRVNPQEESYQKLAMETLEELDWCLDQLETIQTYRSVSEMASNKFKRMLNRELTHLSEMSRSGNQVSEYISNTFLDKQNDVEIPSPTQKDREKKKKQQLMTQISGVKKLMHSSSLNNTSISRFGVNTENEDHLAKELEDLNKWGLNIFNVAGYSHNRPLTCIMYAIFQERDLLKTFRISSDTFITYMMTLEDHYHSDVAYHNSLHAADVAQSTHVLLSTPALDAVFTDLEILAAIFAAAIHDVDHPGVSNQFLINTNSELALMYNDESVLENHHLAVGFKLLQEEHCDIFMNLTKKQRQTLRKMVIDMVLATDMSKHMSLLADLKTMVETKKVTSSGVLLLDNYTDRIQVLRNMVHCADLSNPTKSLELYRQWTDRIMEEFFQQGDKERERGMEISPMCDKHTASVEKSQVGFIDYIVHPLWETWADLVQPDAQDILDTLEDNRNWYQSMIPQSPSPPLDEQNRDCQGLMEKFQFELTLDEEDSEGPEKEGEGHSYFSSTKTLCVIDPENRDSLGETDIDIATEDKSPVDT

In general, melting point refers to the temperature, or range, at which the solid turns liquid. Regarding `COc1ccc(C(N)CN2CCN(Cc3ccccc3)C2=O)cc1OC` (racemic) (as salt: hydrochloric acid salt) [Compound 11, (±)-1-[2-amino-2-(3,4-dimethoxyphenyl)ethyl]-3-(phenylmethyl)-2-imidazolidinone], the melting point worked out at 221.7 °C. In general, pIC50 refers to the IC50 on a negative log10 scale, so that one unit is a factor of ten. The compound `COc1ccc(C(C)(O)Cn2cc[nH]c2=O)cc1OC1CCCC1` (racemic) [Compound 12, (±)-1-[2-[3-(cyclopentyloxy)-4-methoxyphenyl]-2-hydroxypropyl]-1,3-dihydro-2H-imidazol-2-one] came in with a melting point of 136.2 °C. In addition, the pIC50 in data set [1] was 6.54. For the same compound, the inhibition in vivo at 5 mg/kg in data set [2] is 87.5%. In the case of `COc1ccc(C(CN2CCN(Cc3ccccc3)C2=O)NC(C)=O)cc1OC` (racemic) [Compound 14, (±)-N-[1-(3,4-dimethoxyphenyl)-2-[2-oxo-3-(phenylmethyl)-1-imidazolidinyl]ethyl]acetamide], the melting point was 156.4 °C. Besides, in data set [2], the inhibition in vivo at 5 mg/kg came out at 32.3%. Compound `CCOC(Cn1cc[nH]c1=O)c1ccc(OC)c(OC)c1` (racemic) [Compound 15, (±)-1-[2-(3,4-dimethoxyphenyl)-2-ethoxyethyl]-1,3-dihydro-2H-imidazol-2-one] showed a melting point of 133.6 °C. Compound `COc1ccc(C2(Cn3ccn(Cc4ccccc4)c3=O)CC2)cc1OC` [Compound 21, 1-[[1-(3,4-dimethoxyphenyl)cyclopropyl]methyl]-1,3-dihydro-3-(phenylmethyl)-2H-imidazol-2-one] had a melting point of 110.5 °C. Consider `COc1ccc(C(C)CN2CCNC2=O)cc1OC` (centres unmarked) [Compound 80, 1-[2-(3,4-dimethoxyphenyl)propyl]-1,3,4,5-tetrahydro-2H-imidazol-2-one], for which the pIC50 in data set [1] was 5.49. Further, the inhibition in vivo at 5 mg/kg in data set [2] was found to be 53.4%. The like results for `CCOc1ccc(CCn2cc[nH]c2=O)cc1OCC` [Compound 82] were, in that order, 6.34 and 28.2%.

On to `COc1ccc(C(Cn2cc[nH]c2=O)OC)cc1OC` (centres unmarked) [Compound 83, 1,3-dihydro-1-[2-(3,4-dimethoxyphenyl)-2-methoxy-ethyl]-2H-imidazol-2-one], for which the pIC50 in data set [1] was 5.57. Moreover, in data set [2], the inhibition in vivo at 5 mg/kg amounted to 18.6%.

Source of the values: patent US6403805B1 (Janssen Pharmaceutica N.V., priority 1995, dated 2002).
